Data set [1] relates to 143B cells. Kind of data set: Intracellular peptide delivery, confocal microscopy and flow cytometry. In kind it is cell-based, human. The procedure: 10 µM of ^FINBD, ^FINBD‐F, or ^FINBD‐T was added to confocal dishes (diameter: 35 mm) when the 143B cells reached 90% confluence. After a 6 h incubation, the cells were rinsed with trypan blue and PBS, followed by imaging using a LSCM.
For flow cytometry analysis, the peptide ^FINBD, ^FINBD‐F, or ^FINBD‐T was added to 143B cells, following the aforementioned protocols. Subsequently, cells were digested using 0.25% trypsin, resuspended in PBS, and subjected to quantitative analysis of delivery efficiency using flow cytometry (CytoFLEX, BECKMAN, USA).
A control group consisted of ^FINBD‐F treated 143B cells in the absence of inhibitors (37 °C). Finally, LSCM was employed to observe internalized ^FINBD‐F in the treated cells.

Another data set relates to mouse red blood cell. The data set can be described thus: Hemolysis of red blood cell suspension. In kind it is cell-based. The following applies: 2% mouse red blood cell suspension, different concentrations, 37 °C, 2 h, 1% Triton X‐100 positive control, n = 3. The procedure:
Figure 3 Bioactivity of fluorous NBD nanoparticles. A) Schematic illustration of the NBD peptide inhibiting the NF‐κB pathway. B) WB analysis of p65, IκB, and phosphorylated p65 and IκB, respectively in BMM cells treated with RANKL for 2 h and then further incubated with different peptides (25 µM) for 24 h. C) Representative images of TRAP staining in BMM cells treated with PBS, NBD, NBD‐T, and NBD‐F respectively for osteoclast differentiation. The concentration of peptides was 25 µM. D) Quantification of the number of TRAP‐positive multinucleated osteoclasts (≥ 3 nuclei) based on the images in C). n = 5. Cell viability E) and LDH release F) of 143B cells exposed for 24 h to varying doses of NBD, NBD‐T, and NBD‐F, respectively. n = 3. G) Apoptosis analysis of 143B cells stained with FITC‐annexin V and propidium iodide (PI) for 24 h following treatment with NBD, NBD‐T, and NBD‐F, respectively. H) Images of 2% mouse red blood cell suspension incubated with different concentrations of NBD‐F or NBD‐T at 37 °C for 2 h. Triton X‐100 at 1% (Tx‐100) was used as a positive control. PBS was used as a negative control. […] Relative hemolysis was tested as [(As‐An)/(Ap‐An)] × 100%, where As, Ap, and An are the UV absorbances of the sample, positive control, and negative control, respectively (n = 3). *p < 0.05, **p < 0.01, ***p < 0.001, and ****p < 0.0001. […]

In data set [2] the test system is 143B cells. The data set can be described thus: LDH release assay. In kind it is cell-based, human. The following applies: varying doses, 24 h, n = 3. As to the method:
For the LDH assay, different concentrations of peptides were added to 143B cells as described above. The LDH released from the cells was measured by the manufacturer's protocol (Beyotime) after 24 h of incubation. Briefly, a new plate was used to transfer the solution of each well and treat it with lysis buffer at 37 °C for another 1 h. Each well was then incubated with the LDH working solution for 30 min. LDH activity was measured at 490 nm. Negative control cells were non‐treated, while positive control cells were treated with lysis buffer for 1 h directly. All samples were tested in triplicate.

Residues, ends and D or L forms follow the SMILES beside them. *: point of attachment. X1 = O=C(OCCC(F)(F)C(F)(F)C(F)(F)C(F)(F)C(F)(F)C(F)(F)F)c1ccc(C=NN*)cc1; FITC = O=C1OC2(c3ccc(O)cc3Oc3cc(O)ccc32)c2ccc(NC(=S)*)cc21; NHNH2 = NN*

For the compound “{FITC}-TALDWSWLQTE-NHNH2 [^FINBD-F, FITC‐labeled NBD peptide after fluorous tag modification]”, the “Efficiency of intracellular delivery (fluorescence intensity)” value in the data set with 143B cells [1] (10 µM NBD, 6 h, confocal microscopy and flow cytometry, n = 3, compared with ^FINBD and ^FINBD‐T) was “noticeably improved the efficiency of intracellular delivery”. In addition, the Internalization mechanism entry in the data set with 143B cells [1] (1 h pretreatment with EIPA 100 µM, MβCD 10 mM, GEN 700 µM, CPZ 20 µM or 4 °C, then 6 h peptide) is listed as “mediated through multiple endocytosis pathways”. The “Cellular uptake and endosomal escape” value in the data set with 143B cells [1] (confocal, fluorescence dispersed throughout the cells after an hour of incubation) is “rapid and efficient”.
With `CC(C)C[C@H](NC(=O)[C@H](C)NC(=O)[C@@H](N)[C@@H](C)O)C(=O)N[C@@H](CC(=O)O)C(=O)N[C@@H](Cc1c[nH]c2ccccc12)C(=O)N[C@@H](CO)C(=O)N[C@@H](Cc1c[nH]c2ccccc12)C(=O)N[C@@H](CC(C)C)C(=O)N[C@@H](CCC(N)=O)C(=O)N[C@H](C(=O)N[C@@H](CCC(=O)O)C(=O)NN=Cc1ccc(C(=O)OCCC(F)(F)C(F)(F)C(F)(F)C(F)(F)C(F)(F)C(F)(F)F)cc1)[C@@H](C)O` [NBD-F] (H-TALDWSWLQTE-X1), the Relative hemolysis result with mouse red blood cell is listed as “relatively low hemolytic rate”. In the data set with 143B cells [2], the LDH release entry is listed as “concentration‐dependent”.

The values above are taken from PMC11714165, “Bone‐Targeted Fluoropeptide Nanoparticle Inhibits NF‐κB Signaling to Treat Osteosarcoma and Tumor‐Induced Bone Destruction” (Advanced Science, 2024).
